One series deals with LU99. As to the kind of experiment: Cell viability assay for additional cell lines: LU99. It counts as cell-based. Conditions: for GI50: Homo sapiens, Lu-99, 216 h, 9-day treatment, average of n=2, read-out: MTAP-Deleted GI50. On the procedure:
(§1) Some Compounds of the Disclosure were tested in Calu-6 (Vendor: ATCC; Cat #HTB-56; Description: lung, adenocarcinoma), LU99 (Vendor: JCRB; Cat #JCRB0080; Description: non-small cell lung cancer), SW780 (Vendor: ATCC; Cat #CRL-2169; Description: bladder urothelial carcinoma), BxPC-3 (Vendor: ATCC; Cat #CRL-1687; Description: pancreatic adenocarcinoma), Panc-1 (Vendor: ATCC; Cat #CRL-1469 Description: pancreatic adenocarcinoma), AsPC-1 (Vendor: ATCC; Cat #CRL-1682; Description: pancreatic adenocarcinoma), Calu-6 (Vendor: ATCC; Cat #HTB-56; Description: non-small cell lung cancer), and U-2 OS (Vendor: ATCC; Cat #HTB-96; Description: osteosarcoma), cellular viability assays according to the general protocol. Seeded cells into 96-well plate and incubated overnight. Seeded an additional 10 wells per cell line in an additional 96-well plate for assessing Time Zero luminescence and incubated overnight. To treatment plates, added compounds into each well using Tecan D300e dispenser (nine three-fold dilutions starting at 10 μM) and incubated for 9 days. Time Zero (no compound treatment, luminescence assessed on day 1) and 9-day treatment (luminescence assessed on day 10) plates were assessed using the same CellTiter-Glo® substrate protocol. Thawed CellTiter-Glo® Buffer and lyophilized CellTiter-Glo® substrate and equilibrated to room temperature prior to use. The DMSO concentration was normalized to 0.137%. Transferred 100 ml CellTiter-Glo® Buffer into amber bottle containing CellTiter-Glo® substrate to reconstitute the lyophilized enzyme/substrate mixture. For Time Zero and 9-day treatment plates, removed all plating media. Added 100 μl fresh media/well. Added 100 μl CellTiter-Glo® Reagent per well. Mixed contents for 10 min on an orbital shaker to lyse cells. Recorded luminescence with Perkin Elmer Envision 2105 machine. Analyzed the data with GraphPad software. Potency fold difference is defined as GI50 (AMG193)/GI50 (Ca-47) for the MTAP^del cell line of interest. The structure of AMG193 is as follows.

For the next series, the system named is BxPC-3. As to the kind of experiment: Cell viability assay for additional cell lines: BxPC-3. It counts as cell-based. Conditions: for GI50: Homo sapiens, 216 h, 9-day treatment, average of n=2, read-out: MTAP-Deleted GI50. On the procedure:
as §1

Series [1] is described as follows: Hepatocyte stability assay. It counts as in vitro ADME. Conditions: Rat hepatocytes; 1 μM substrate. As for the experimental part:
BioreclamationIVT (Baltimore, MD) provided the cryopreserved hepatocytes, hepatocyte thawing (HT) medium, and Krebs-Henseleit buffer (KHB) medium. The stock solution concentration was 1 M in DMSO and was then diluted further in acetonitrile/water (1:1 v/v). All other chemicals were purchased from Sigma-Aldrich (St. Louis, MO) or Thermo Fisher Scientific (Waltham, MA).
The quench solution used to stop reactions in the hepatocyte incubations was comprised of 100% (v/v) acetonitrile. Internal Standard/Quench (IS/Q) solution used to stop reactions with the positive control also contained 200 nM Labetalol.
Metabolic Stability in Cryopreserved Hepatocytes: Test compounds, or the positive control metabolic substrate, was incubated in suspensions of cryopreserved hepatocytes at a final concentration of 1 μM. Vials containing cryopreserved hepatocytes were removed from liquid nitrogen and immediately immersed in a 37° C. water bath. The vials were swirled gently until the contents had thawed. […] The viabilities of all cell preparations were >85%, assessed by Trypan blue dye exclusion.
For incubations, aliquots of hepatocyte suspension (250 μL containing a cell concentration of 2×10^6 cells/mL) were added to 250 μL of 2 μM substrate (test compound or positive control) in supplemented KHB in duplicate wells in a 24-well plate. […] Samples were injected and analyzed with methods described below. […]

The source of these data is patent publication US20250154172A1, “PRMT5 INHIBITORS AND USES THEREOF” (Gilead Sciences, Inc., priority 2023, published 2025).

A word on the GI50: it is the concentration at which growth is held to half of that of the control. For `Nc1nc2cnc(C(=O)N3CCOC[C@@H]3c3ccc(C(F)(F)F)cc3)cc2c2c1COC2` [AMG193, reference compound], the GI50 was 45 nM with LU99 and 68 nM with BxPC-3. Moreover, in series [1], the “Predicted Hepatocyte CL” value was 41 mL/min/kg.
As for `Nc1nc2cnc(C(=O)N3CCC[C@@H]4Oc5cc(C(F)(F)F)cc(F)c5[C@@H]43)cc2c2c1COC2` [Example Ca-47, (4-amino-1,3-dihydrofuro[3,4-c][1,7]naphthyridin-8-yl)((4aS,9bS)-9-fluoro-7-(trifluoromethyl)-3,4,4a,9b-tetrahydrobenzofuro[3,2-b]pyridin-1(2H)-yl)methanone], the values for the Potency fold difference in the series with LU99 (GI50 (AMG193)/GI50 (Ca-47)) and with BxPC-3 (GI50 (AMG193)/GI50 (Ca-47)) were 5 and 4.3, respectively. The GI50 came to 9 nM with LU99 and 16 nM in the series on BxPC-3. The “Predicted Hepatocyte CL” value in series [1] was 42.2 mL/min/kg.
